# Reference: US10494355B2, “Oxadiazole amine derivative compounds as histone deacetylase 6 inhibitor, and the pharmaceutical composition comprising the same” (Chong Kun Dang Pharmaceutical Corp., priority 2015, dated 2019)
# pIC50: −log10 of the molar value.
# Key:
# human recombinant HDAC6 = molecular target: T1, human recombinant HDAC6 (Homo sapiens, UniProt Q9UBN7); experiment: HDAC6 enzyme activity inhibition assay (HDAC Fluorimetric Drug Discovery Kit); assay type: biochemical; details: 30° C. 60 minutes
# T1 construct: purchased Calbiochem 382180
# T1 sequence (Q9UBN7 1-1215): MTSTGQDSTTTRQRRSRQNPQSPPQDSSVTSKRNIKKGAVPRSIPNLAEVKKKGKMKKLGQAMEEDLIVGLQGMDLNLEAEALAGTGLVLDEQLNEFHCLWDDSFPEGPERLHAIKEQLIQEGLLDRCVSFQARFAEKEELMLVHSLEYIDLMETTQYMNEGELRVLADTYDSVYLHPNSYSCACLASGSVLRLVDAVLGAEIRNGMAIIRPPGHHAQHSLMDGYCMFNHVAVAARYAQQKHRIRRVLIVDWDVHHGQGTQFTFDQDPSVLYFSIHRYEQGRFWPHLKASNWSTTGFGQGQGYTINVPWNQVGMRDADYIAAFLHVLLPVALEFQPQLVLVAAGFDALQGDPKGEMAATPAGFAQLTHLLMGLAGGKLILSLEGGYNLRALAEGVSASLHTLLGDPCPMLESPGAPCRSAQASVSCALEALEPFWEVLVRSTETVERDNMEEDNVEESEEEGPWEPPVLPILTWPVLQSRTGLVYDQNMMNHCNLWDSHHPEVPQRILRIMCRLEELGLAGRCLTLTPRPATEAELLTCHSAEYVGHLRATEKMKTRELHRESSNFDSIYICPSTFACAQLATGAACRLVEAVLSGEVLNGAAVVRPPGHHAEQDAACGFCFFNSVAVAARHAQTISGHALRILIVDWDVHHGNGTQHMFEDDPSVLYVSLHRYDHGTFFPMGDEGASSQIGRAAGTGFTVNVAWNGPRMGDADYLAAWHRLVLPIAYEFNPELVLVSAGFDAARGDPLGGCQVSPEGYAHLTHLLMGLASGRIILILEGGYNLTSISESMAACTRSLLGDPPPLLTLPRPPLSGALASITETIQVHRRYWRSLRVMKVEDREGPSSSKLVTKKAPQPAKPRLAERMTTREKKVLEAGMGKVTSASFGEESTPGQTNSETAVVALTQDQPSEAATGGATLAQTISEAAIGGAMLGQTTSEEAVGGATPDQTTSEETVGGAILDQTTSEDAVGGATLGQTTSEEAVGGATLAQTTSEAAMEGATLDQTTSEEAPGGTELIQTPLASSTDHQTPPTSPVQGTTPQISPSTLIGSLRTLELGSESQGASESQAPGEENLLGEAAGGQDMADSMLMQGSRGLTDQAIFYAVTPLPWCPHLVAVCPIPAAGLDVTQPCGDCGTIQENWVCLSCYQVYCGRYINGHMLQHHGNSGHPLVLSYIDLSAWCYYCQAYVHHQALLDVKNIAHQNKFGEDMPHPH
# Procedure, shortened: (§1)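 Fluorescence (Ex 360, Em 460) after 30 min developer step; IC50 from dose-response. Reaction: 0.3 μg recombinant enzyme, 10 μM Fluor de Lys-SIRT1 substrate, 5-fold compound dilutions, 60 min at 30° C. Same protocol for both isoforms.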
# human recombinant HDAC1 = molecular target: T2, human recombinant HDAC1 (Homo sapiens, UniProt Q13547); experiment: HDAC1 enzyme activity inhibition assay (HDAC Fluorimetric Drug Discovery Kit); assay type: biochemical; details: human recombinant HDAC1, 10 μM substrate, 30° C. 60 minutes
# T2 construct: purchased Enzo Life Science BML-SE456
# Procedure, shortened: as §1
# T2 sequence (Q13547 whole entry): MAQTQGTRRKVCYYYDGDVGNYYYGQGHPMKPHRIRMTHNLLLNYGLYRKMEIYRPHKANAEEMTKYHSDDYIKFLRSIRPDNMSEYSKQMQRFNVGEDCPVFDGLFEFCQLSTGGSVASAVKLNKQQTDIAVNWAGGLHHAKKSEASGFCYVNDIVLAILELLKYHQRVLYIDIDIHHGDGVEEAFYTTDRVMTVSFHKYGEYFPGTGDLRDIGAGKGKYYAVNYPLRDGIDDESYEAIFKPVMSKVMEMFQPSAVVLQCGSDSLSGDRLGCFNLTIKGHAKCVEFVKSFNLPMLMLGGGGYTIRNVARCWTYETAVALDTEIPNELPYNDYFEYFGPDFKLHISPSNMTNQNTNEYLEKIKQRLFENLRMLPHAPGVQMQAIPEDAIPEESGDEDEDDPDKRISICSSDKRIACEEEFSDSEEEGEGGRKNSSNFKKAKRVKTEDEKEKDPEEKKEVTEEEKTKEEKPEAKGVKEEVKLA
SMILES,pIC50 (human recombinant HDAC6),pIC50 (human recombinant HDAC1)
"Fc1ccc(C2(Nc3ncc(-c4nnc(C(F)F)o4)cn3)CCC2)c(F)c1 [Compound 2027, 5-(5-(difluoromethyl)-1,3,4-oxadiazol-2-yl)-N-(1-(2,4-difluorophenyl)cyclobutyl)pyrimidin-2-amine]",7.05,< 5.00
"Fc1cccc(C2(Nc3ncc(-c4nnc(C(F)F)o4)cn3)CC2)c1 [Compound 1713, 5-(5-(difluoromethyl)-1,3,4-oxadiazol-2-yl)-N-(1-(3-fluorophenyl)cyclopropyl)pyrimidin-2-amine]",7.48,< 5.00
"Cc1cccc(C2(Nc3ncc(-c4nnc(C(F)(F)F)o4)cn3)CCC2)c1 [Compound 1674, N-(1-(m-tolyl)cyclobutyl)-5-(5-(trifluoromethyl)-1,3,4-oxadiazol-2-yl)pyrimidin-2-amine]",6.88,< 5.00
"FC(F)c1nnc(-c2cnc(NC3(c4ccc(C5CCN(C6COC6)CC5)cc4)CCC3)nc2)o1 [Compound 2023, 5-(5-(difluoromethyl)-1,3,4-oxadiazol-2-yl)-N-(1-(4-(1-(oxetan-3-yl)piperidin-4-yl)phenyl)cyclobutyl)pyrimidin-2-amine]",6.41,< 5.00
"FC(F)c1nnc(-c2cnc(NC3(c4cccc(Cl)c4)CCC3)nc2)o1 [Compound 1615, N-(1-(3-chlorophenyl)cyclobutyl)-5-(5-(difluoromethyl)-1,3,4-oxadiazol-2-yl)pyrimidin-2-amine]",7.66,< 5.00
"FC(F)(F)c1nnc(-c2cnc(NC3(c4ccccc4Cl)CCC3)nc2)o1 [Compound 1617, N-(1-(2-chlorophenyl)cyclobutyl)-5-(5-(trifluoromethyl)-1,3,4-oxadiazol-2-yl)pyrimidin-2-amine]",6.68,< 5.00

# Further compounds by rising pIC50 (human recombinant HDAC6), results first:
pIC50 (human recombinant HDAC6),pIC50 (human recombinant HDAC1),SMILES
5.83,< 5.00,"Fc1c(Cl)cccc1C1(Nc2ncc(-c3nnc(C(F)(F)F)o3)cn2)CCC1 [Compound 1966, N-(1-(3-chloro-2-fluorophenyl)cyclobutyl)-5-(5-(trifluoromethyl)-1,3,4-oxadiazol-2-yl)pyrimidin-2-amine]"
6.12,< 5.00,"FC(F)(F)c1nnc(-c2cnc(NC3(c4cccc(Cl)c4Cl)CCC3)nc2)o1 [Compound 1833, N-(1-(2,3-dichlorophenyl)cyclobutyl)-5-(5-(trifluoromethyl)-1,3,4-oxadiazol-2-yl)pyrimidin-2-amine]"
6.59,< 5.00,"FC(F)c1nnc(-c2cnc(NC3(c4ccc(N5CCOCC5)cc4)CCC3)nc2)o1 [Compound 2062, 5-(5-(difluoromethyl)-1,3,4-oxadiazol-2-yl)-N-(1-(4-morpholinophenyl)cyclobutyl)pyrimidin-2-amine]"
6.70,< 5.00,"FC(F)c1nnc(-c2cnc(NC3(c4ccc(Cl)cc4Cl)CCC3)nc2)o1 [Compound 1836, N-(1-(2,4-dichlorophenyl)cyclobutyl)-5-(5-(difluoromethyl)-1,3,4-oxadiazol-2-yl)pyrimidin-2-amine]"
7.11,< 5.00,"Fc1ccc(C2(Nc3ncc(-c4nnc(C(F)F)o4)cn3)CCC2)cc1Cl [Compound 1817, N-(1-(3-chloro-4-fluorophenyl)cyclobutyl)-5-(5-(difluoromethyl)-1,3,4-oxadiazol-2-yl)pyrimidin-2-amine]"
7.36,< 5.00,"FC(F)c1nnc(-c2cnc(NC3(c4ccc(Cl)cc4)CCC3)nc2)o1 [Compound 1616, N-(1-(4-chlorophenyl)cyclobutyl)-5-(5-(difluoromethyl)-1,3,4-oxadiazol-2-yl)pyrimidin-2-amine]"
7.37,< 5.00,"Fc1cccc(C2(Nc3ncc(-c4nnc(C(F)F)o4)cn3)CCC2)c1F [Compound 1827, 5-(5-(difluoromethyl)-1,3,4-oxadiazol-2-yl)-N-(1-(2,3-difluorophenyl)cyclobutyl)pyrimidin-2-amine]"
